Measurements taken from patent publication US20240166642A1, “INHIBITORS OF MYELOPEROXIDASE” (ASTRAZENECA AB, priority 2022, published 2024).

What was measured:
[1] = target: MPO (purified from HL60 cells) (Homo sapiens (Human), UniProt P05164); test: MPO activity (IC50), luminol chemiluminescence assay; format: biochemical; settings: PBS pH7.4, luminol 100 μM, H2O2 50 μM, chemiluminescence recorded after 15 minutes
Description: (§1) The experiments were performed in phosphate-buffered saline (PBS), pH7.4. A 10 mM luminol (A4695, Sigma Aldrich, St Louis, MO, USA) stock was prepared in distilled water and further diluted in PBS to a final concentration of 100 μM. H2O2 was prepared as 1 mM stock in PBS, yielding a final concentration of 50 μM after addition into the assay. The compounds were serially diluted in DMSO in a separate plate as a 100× stock solution, and MPO (purified from HL60 cells) and TPO (produced in insect cells, RSR Ltd, Cardiff, UK), were diluted to yield a final concentration of approximately 14 and 150 ng/mL, generating 5600 and 9300 light counts per seconds (LCPS) upon incubation with luminol.
(§2) The experiment was run by pipetting 2 μL 100× stock solution of the compound and 200 μL diluted enzyme in PBS into wells in a 96-well Optiplate (6005290, Perkin Elmer/Thermo Fischer, Waltham, MS, USA), followed by addition of 10 μL H2O2 containing PBS. Chemiluminescence measurement (Perkin Elmer Wallac Microbeta Trilux 1450-029 (12-detector), Turkuu, Finland) was started directly and recorded after 2, 10 and 15 minutes.

[2] = target: TPO (produced in insect cells, RSR Ltd) (Homo sapiens (Human), UniProt P07202); test: TPO activity (IC50), luminol chemiluminescence assay; format: biochemical; settings: PBS pH7.4, luminol 100 μM, H2O2 50 μM, chemiluminescence recorded after 15 minutes
Description: as §1, §2

TPO (produced in insect cells, RSR Ltd), sequence (P07202 19-933): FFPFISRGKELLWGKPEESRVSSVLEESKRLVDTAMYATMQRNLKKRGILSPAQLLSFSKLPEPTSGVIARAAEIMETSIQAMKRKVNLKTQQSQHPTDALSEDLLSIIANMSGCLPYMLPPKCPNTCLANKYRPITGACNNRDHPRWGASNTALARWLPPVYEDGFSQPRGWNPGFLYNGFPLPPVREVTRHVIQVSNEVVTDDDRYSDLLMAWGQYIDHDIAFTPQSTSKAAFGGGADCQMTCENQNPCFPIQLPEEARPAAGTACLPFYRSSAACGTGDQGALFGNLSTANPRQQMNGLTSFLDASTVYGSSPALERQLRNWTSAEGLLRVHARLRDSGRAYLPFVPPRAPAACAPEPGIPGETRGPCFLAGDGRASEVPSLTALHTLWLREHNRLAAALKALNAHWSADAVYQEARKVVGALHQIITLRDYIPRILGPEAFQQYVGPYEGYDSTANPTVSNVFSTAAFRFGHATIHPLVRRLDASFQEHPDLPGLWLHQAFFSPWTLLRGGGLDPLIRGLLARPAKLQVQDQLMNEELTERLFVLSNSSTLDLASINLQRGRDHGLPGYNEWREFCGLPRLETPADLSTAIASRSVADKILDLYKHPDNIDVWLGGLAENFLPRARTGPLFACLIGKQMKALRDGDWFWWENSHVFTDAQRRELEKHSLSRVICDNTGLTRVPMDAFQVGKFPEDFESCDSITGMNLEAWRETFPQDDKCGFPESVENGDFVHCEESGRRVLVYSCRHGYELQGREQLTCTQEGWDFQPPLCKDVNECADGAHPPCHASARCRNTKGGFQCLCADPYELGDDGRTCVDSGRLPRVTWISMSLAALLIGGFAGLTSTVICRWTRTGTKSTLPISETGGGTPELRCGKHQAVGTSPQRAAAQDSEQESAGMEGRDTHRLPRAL
MPO (purified from HL60 cells), sequence (P05164 49-745): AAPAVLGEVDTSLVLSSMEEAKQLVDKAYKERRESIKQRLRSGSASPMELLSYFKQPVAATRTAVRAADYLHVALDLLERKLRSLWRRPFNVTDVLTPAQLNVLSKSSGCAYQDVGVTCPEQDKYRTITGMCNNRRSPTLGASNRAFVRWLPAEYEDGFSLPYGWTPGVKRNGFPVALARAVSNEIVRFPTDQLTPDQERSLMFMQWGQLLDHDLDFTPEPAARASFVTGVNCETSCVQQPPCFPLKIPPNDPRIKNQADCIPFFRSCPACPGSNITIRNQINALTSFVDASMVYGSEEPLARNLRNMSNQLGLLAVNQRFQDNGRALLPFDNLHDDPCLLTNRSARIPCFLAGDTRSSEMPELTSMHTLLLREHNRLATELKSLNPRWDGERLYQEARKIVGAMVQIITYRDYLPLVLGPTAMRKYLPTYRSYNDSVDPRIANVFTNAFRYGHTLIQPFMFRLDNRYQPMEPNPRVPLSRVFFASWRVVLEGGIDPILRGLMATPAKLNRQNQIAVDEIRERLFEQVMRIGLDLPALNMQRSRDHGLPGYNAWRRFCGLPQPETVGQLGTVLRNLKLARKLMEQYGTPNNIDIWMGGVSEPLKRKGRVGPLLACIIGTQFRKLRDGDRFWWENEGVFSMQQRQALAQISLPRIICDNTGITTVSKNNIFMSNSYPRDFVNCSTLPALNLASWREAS

| SMILES | IC50 [1] | IC50 [2] |
| --- | --- | --- |
| O=c1[nH]c(=S)n(Cc2cccnc2[C@H]2C[C@H](C(F)(F)F)CCN2)c2cc[nH]c12 (single isomer, unassigned) [Example 31b] | 48 nM | 2900 nM |
| O=c1[nH]c(=S)n(Cc2ccccc2C2CCNCC2)c2cc[nH]c12 [Example 30, 1-(2-(Piperidin-4-yl)benzyl)-2-thioxo-1,2,3,5-tetrahydro-4H-pyrrolo[3,2-d]pyrimidin-4-one] | 29 nM | 590 nM |
| O=c1[nH]c(=S)n(Cc2ccccc2[C@H]2C[C@@H](C(F)(F)F)CCN2)c2cc[nH]c12 (single isomer, unassigned) [Example 10a] | 6 nM | 1200 nM |
| O=c1[nH]c(=S)n(Cc2cccc3c2CNC3)c2cc[nH]c12 [Example 26, 1-(Isoindolin-4-ylmethyl)-2-thioxo-1,2,3,5-tetrahydro-4H-pyrrolo[3,2-d]pyrimidin-4-one] | 13 nM | 840 nM |
| O=c1[nH]c(=S)n(Cc2cccnc2[C@H]2C[C@H](C(F)(F)F)CCN2)c2cc[nH]c12 (single isomer, unassigned) [Example 31a] | 30 nM | 1700 nM |
| O=c1[nH]c(=S)n(Cc2ccccc2[C@H]2C[C@@H](C(F)F)CCN2)c2cc[nH]c12 (single isomer, unassigned) [Example 19a] | 11.9 nM | 1760 nM |
| O=c1[nH]c(=S)n(Cc2ncccc2[C@H]2C[C@@H](C(F)(F)F)CCN2)c2cc[nH]c12 (racemic) [Example 21, rac-2-Thioxo-1-((3-((2R,4S)-4-(trifluoromethyl)piperidin-2-yl)pyridin-2-yl)methyl)-1,2,3,5-tetrahydro-4H-pyrrolo[3,2-d]pyrimidin-4-one] | 5.7 nM | 540 nM |
| O=c1[nH]c(=S)n(Cc2ccccc2C2CCC(C(F)(F)F)CN2)c2cc[nH]c12 (centres unmarked) [Example 11, 2-Thioxo-1-(2-(5-(trifluoromethyl)piperidin-2-yl)benzyl)-1,2,3,5-tetrahydro-4H-pyrrolo[3,2-d]pyrimidin-4-one] | 13 nM | 540 nM |
| NC1(c2ccc(Cn3c(=S)[nH]c(=O)c4[nH]ccc43)cc2)CCC1 [Example 24, 1-(4-(1-Aminocyclobutyl)benzyl)-2-thioxo-1,2,3,5-tetrahydro-4H-pyrrolo[3,2-d]pyrimidin-4-one] | 12 nM | 560 nM |
| O=c1[nH]c(=S)n(Cc2cccc3c2CNCC3)c2cc[nH]c12 [Example 23, 1-((1,2,3,4-Tetrahydroisoquinolin-8-yl)methyl)-2-thioxo-1,2,3,5-tetrahydro-4H-pyrrolo[3,2-d]pyrimidin-4-one] | 10 nM | 380 nM |
| O=c1[nH]c(=S)n(Cc2ccc3c(c2)CNC3)c2cc[nH]c12 [Example 25, 1-(Isoindolin-5-ylmethyl)-2-thioxo-1,2,3,5-tetrahydro-4H-pyrrolo[3,2-d]pyrimidin-4-one] | 103 nM | 570 nM |
| O=c1[nH]c(=S)n(Cc2ccccc2[C@H]2C[C@H](C(F)(F)F)CCN2)c2cc[nH]c12 (stereo in doubt) [Example 17a, rel-2-Thioxo-1-(2-((2R,4R)-4-(trifluoromethyl)piperidin-2-yl)benzyl)-1,2,3,5-tetrahydro-4H-pyrrolo[3,2-d]pyrimidin-4-one] | 16.5 nM | 760 nM |
| O=c1[nH]c(=S)n(Cc2cccnc2[C@H]2C[C@@H](C(F)(F)F)CCN2)c2cc[nH]c12 (single isomer, unassigned) [Example 16b] | 3.9 nM | 780 nM |

Now from value to compound:

| IC50 [1] | IC50 [2] | SMILES |
| --- | --- | --- |
| 194 nM | 1680 nM | O=c1[nH]c(=S)n(Cc2ccc(Cl)cc2C2COCCN2)c2nc[nH]c12 (centres unmarked) [Example 5, 3-(4-Chloro-2-(morpholin-3-yl)benzyl)-2-thioxo-1,2,3,7-tetrahydro-6H-purin-6-one] |
| 15 nM | 540 nM | O=c1[nH]c(=S)n(Cc2ccccc2[C@H]2CNCCO2)c2cc[nH]c12 (single isomer, unassigned) [Example 29] |
| 3.6 nM | 550 nM | O=c1[nH]c(=S)n(Cc2ccc(Cl)cc2[C@H]2CCCCN2)c2cc[nH]c12 (single isomer, unassigned) [Example 2b] |
| 127 nM | 810 nM | O=c1[nH]c(=S)n(Cc2ccc(Cl)cc2[C@H]2COCCN2)c2cc[nH]c12 (single isomer, unassigned) [Example 4b] |
| 3 nM | 550 nM | O=c1[nH]c(=S)n(Cc2ccc(Cl)cc2[C@H]2CCCN2)c2cc[nH]c12 (single isomer, unassigned) [Example 3a] |
| 12.1 nM | 1010 nM | O=c1[nH]c(=S)n(Cc2ccccc2[C@H]2CCCCN2)c2cc[nH]c12 (single isomer, unassigned) [Example 1a] |
| 7.2 nM | 540 nM | O=c1[nH]c(=S)n(Cc2ccccc2C2CC(F)(F)CCN2)c2nc[nH]c12 (centres unmarked) [Example 14, 3-(2-(4,4-Difluoropiperidin-2-yl)benzyl)-2-thioxo-1,2,3,7-tetrahydro-6H-purin-6-one] |
| 27.5 nM | 700 nM | O=c1[nH]c(=S)n(Cc2ccc(Cl)cc2[C@H]2CCCN2)c2cc[nH]c12 (single isomer, unassigned) [Example 3b] |
| 12.2 nM | 1040 nM | O=c1[nH]c(=S)n(Cc2ccc(Cl)cc2[C@H]2CCCCN2)c2cc[nH]c12 (single isomer, unassigned) [Example 2a] |
| 19.6 nM | 420 nM | O=c1[nH]c(=S)n(Cc2ccccc2[C@@H]2CCCCCN2)c2cc[nH]c12 (single isomer, unassigned) [Example 6a] |
| 2.1 nM | 850 nM | O=c1[nH]c(=S)n(Cc2ccccc2[C@H]2CCCCN2)c2cc[nH]c12 (single isomer, unassigned) [Example 1b] |
| 46 nM | 2760 nM | O=c1[nH]c(=S)n(Cc2cccnc2C2CCCCN2)c2cc[nH]c12 (centres unmarked) [Example 20, 1-((2-(Piperidin-2-yl)pyridin-3-yl)methyl)-2-thioxo-1,2,3,5-tetrahydro-4H-pyrrolo[3,2-d]pyrimidin-4-one] |
| 56.3 nM | 730 nM | O=c1[nH]c(=S)n(Cc2ccccc2[C@H]2C[C@H](C(F)(F)F)CCN2)c2nc[nH]c12 (single isomer, unassigned) [Example 18a] |
| 16 nM | 540 nM | O=c1[nH]c(=S)n(Cc2ccccc2C2CCC(F)CN2)c2nc[nH]c12 (centres unmarked) [Example 15, 3-(2-(5-Fluoropiperidin-2-yl)benzyl)-2-thioxo-1,2,3,7-tetrahydro-6H-purin-6-one] |
| 67 nM | 930 nM | O=c1[nH]c(=S)n(Cc2ccccc2[C@@H]2COCCN2)c2cc[nH]c12 [Example 8, (R)-1-(2-(Morpholin-3-yl)benzyl)-2-thioxo-1,2,3,5-tetrahydro-4H-pyrrolo[3,2-d]pyrimidin-4-one] |
